{
  "source": "paper PMC4445002",
  "about": "“Efficient inhibition of tumor angiogenesis and growth by a synthetic peptide blocking S100A4-methionine aminopeptidase 2 interaction” (Molecular Therapy. Methods & Clinical Development, 2015)",
  "key": {"[1]": {"test_system": "S100A4-MetAP2 interaction", "test": "In vitro GST pull-down binding assay S100A4-MetAP2", "conditions": "[35S]MetAP2, GST/S100A4, 1 mmol/l CaCl2; peptide at 25-fold molar excess of MetAP2"}, "MSS31 cells": {"test_system": "MSS31 cells", "test": "Capillary formation (tube formation) on Matrigel", "type": "cell-based, mouse"}, "[2]": {"test_system": "new blood vessel formation in BALB/c nude mice", "test": "Directed in vivo angiogenesis assay (DIVAA) in nude mice", "parameters": "species or system mouse", "conditions": "angioreactors with Afs (bFGF, VEGF, heparin), peptide (1 mg/ml) with atelocollagen, s.c. implant, 15 days, n = 3; NBD P < 0.01"}, "PC-3M-Luc tumors [3]": {"test_system": "PC-3M-Luc tumors", "test": "Tumor angiogenesis (microvessel density, CD31 staining) in PC-3M-Luc xenografts", "type": "in vivo, human tumor in athymic nude mice", "conditions": "single intratumoral injection of 100 μg peptide in atelocollagen, tumors dissected three days after", "protocol": "(§1) Figure 5 Inhibition of tumor angiogenesis and tumor growth of human prostate cancer cells by the NBD peptide. The peptide/atelocollagen was injected into the subcutaneous tumors on day 3 after inoculation of PC-3M-Luc cells. Atelocollagen alone was injected as controls. (a) Microvessel density. Anti-CD31-antibody staining was used to detect angiogenesis. Arrows show microvessels. The images were digitally processed for assessment of angiogenesis. (b) Inhibition of tumor growth by peptide delivery in vivo. Representative bioluminescent images of nude are shown. L, tumors treated with the CBD peptide; R, tumors treated with the NBD peptide. (c) The photon count of the bioluminescence is shown. Data represent the mean ± SD. The total number of animals is 7 in two independent experiments.\nThe peptide/atelocollagen complex was prepared by mixing equal volumes of atelocollagen (0.1% in PBS at pH 7.4) and peptide solution (1 mg/ml) with rotation for 30 minutes at 4 °C. The final concentration of atelocollagen was 0.5%. […] Tumor growth was assessed through peptide/atelocollagen complex administration to mice 3 days after the subcutaneous inoculation of PC-3M-Luc cells. Mice were monitored by bioluminescent imaging 14 days after the injection of the peptide/atelocollagen complex. […]"}, "PC-3M-Luc tumors [4]": {"test_system": "PC-3M-Luc tumors", "test": "Tumor growth by bioluminescence imaging of PC-3M-Luc xenografts", "type": "in vivo, human tumor in athymic nude mice", "protocol": "as §1, with “Data represent the mean ± SD. The total number of animals is 7 in two independent experiments.” left out\nAnimal experiments were performed in compliance with the guidelines of the Institute for Laboratory Animal Research at the National Cancer Center Research Institute. […] Ten minutes later, photons from animal whole bodies were counted using the IVIS imaging system (Caliper Life Sciences) according to the manufacturer’s instructions. Data were analyzed by living image 2.50 software (Caliper Life Sciences).\nThe peptide/atelocollagen complex was prepared by mixing equal volumes of atelocollagen (0.1% in PBS at pH 7.4) and peptide solution (1 mg/ml) with rotation for 30 minutes at 4 °C. […] Mice were monitored by bioluminescent imaging 14 days after the injection of the peptide/atelocollagen complex. […]"}, "[5]": {"test_system": "FAK (Tyr397) in MSS31 cells", "test": "FAK Tyr397 phosphorylation by western blot", "type": "cell-based, mouse", "conditions": "vs control and CBD peptide-treated cells; 5 μg/well, 18 hours", "protocol": "Figure 7 Stimulation of the formation of focal contacts by the NBD peptide. MSS31 cells incubated with atelocollagen alone or the peptide/atelocollagen complexes were subjected to immunofluorescent staining and western blot analysis. (a) Formation of focal adhesions. The cells were immunostained with antivinculin or anti-integrin β1 antibody followed by Alexa Fluor 488-conjugated secondary antibody. F-actin was visualized with Atto 647N-Phalloidin. Nuclei were stained with DAPI. Scale bars: 50 μm. (b) Western blot analysis of focal adhesion proteins. Total cellular proteins were subjected to immunoblot analysis. (c) Relative expression level of vinculin (VCN), integrin β1 (ITGβ1) and p-FAK. The band intensity of VCN and ITGβ1 and p-FAK relative to that of β-actin and total FAK, respectively, was measured using ImageJ software and normalized to control cells.\nMSS31 cells cultured in six-well plates were incubated with 5 μg/well of the NBD or the CBD peptide/atelocollagen complex or atelocollagen alone for 18 hours and were lysed in M-PER Mammarian Protein Extraction Reagent (Thermo Fisher Scientific, Waltham, MA) containing complete, EDTA-free, EASYpack (Roche Applied Science, Penzberg, Upper Bavaria, Germany) and Halt Phosphatase Inhibitor Cocktail (Thermo Fisher Scientific). The lysates was used for immunoblot analysis. […]"}, "S100A4 in MSS31 cells": {"test_system": "S100A4 in MSS31 cells", "test": "S100A4 expression in peptide-loaded cells by western blot", "type": "cell-based, mouse", "conditions": "atelocollagen complex; Supplementary Figure S3"}},
  "data": [
    {"substance": "NBD: N-terminal 39 amino acid sequence of SBD, from Arg170 to Ileu208; corresponding to MetAP2 (170–208) (REAAEAHRQVRKYVMSWIKPGMTMIEICEKLEDCSRKLI)", "values": [
      {"measurement": "inhibition of S100A4-MetAP2 interaction (GST pull-down)", "setting": "[1]", "result": "inhibited the binding as efficiently as SBD"},
      {"measurement": "time at which inhibition of capillary formation is apparent", "setting": "MSS31 cells; after peptide loading, Supplementary Figure S4", "result": "≤ 6", "unit": "h"},
      {"measurement": "tube (capillary) formation", "setting": "MSS31 cells; atelocollagen complex, 5 μg/well, Matrigel with 50 ng/ml HGF, 16 hours, n = 6, *P < 0.01", "result": "severely impaired tube formation"},
      {"measurement": "in vivo angiogenesis (DIVAA)", "setting": "[2]", "result": "potently suppressed the angiogenic factors-induced angiogenesis"},
      {"measurement": "tumor angiogenesis", "setting": "PC-3M-Luc tumors [3]", "result": "severely impaired"},
      {"measurement": "vascularity and tumor regression", "setting": "PC-3M-Luc tumors [4]; single intra-tumor administration, human prostate cancer xenografts (abstract)", "result": "significantly reduced vascularity, resulting in tumor regression"},
      {"measurement": "tumor growth", "setting": "PC-3M-Luc tumors [4]; single intratumoral injection of 100 μg peptide in atelocollagen, bioluminescence on day 14, vs atelocollagen alone and CBD, n = 7, P < 0.05", "result": "significant inhibition of the growth of tumors"},
      {"measurement": "phosphorylation of Tyr397 of FAK", "setting": "[5]", "result": "no significant increase in the phosphorylation of Tyr397 of FAK"},
      {"measurement": "expression level of S100A4", "setting": "S100A4 in MSS31 cells", "result": "no apparent change in the expression level of S100A4"}
    ]}
  ]
}
